Source: patent US8613950B2, “Pharmaceutical forms with improved pharmacokinetic properties” (Bayer Intellectual Property GmbH, priority 2005, dated 2013)
Structures can show the parent of a compound that is named as a salt.

Columns and labels:
[1] = Solubility of the vardenafil form employed in 10 ml of physiological saline at 25° C.; assay type: physicochemical
Text: Accordingly, the present invention provides a vardenafil-comprising drug formulation, which is characterized in that the solubility of the form of vardenafil employed in a small amount of aqueous liquid is sufficiently high and the dissolution rate of the formulation disintegrating in the mouth is sufficiently rapid.

[2] = cited from earlier work

Row | amount of the active compound form that dissolves in 10 ml of physiological saline ([1]; 10 ml physiological saline, amount offered = tablet dose corresponding to 10 mg of vardenafil, hydrochloride trihydrate) | dissolved amount expressed as vardenafil ([1]; 10 ml physiological saline, dose 11.85 mg vardenafil hydrochloride trihydrate) [mg] | share of the active compound employed that dissolves in 10 ml of physiological saline ([1]; dose 5.93 mg vardenafil hydrochloride trihydrate (5 mg vardenafil)) [%] | share of the dose of the active compound employed that dissolves in 10 ml of physiological saline ([1]; dose corresponding to 10 mg of vardenafil, hydrochloride trihydrate) [%] | Structure (SMILES) | bioavailability ([2]; known property of vardenafil, oral) | time after administration at which the rapid decrease in the plasma concentration occurs ([2]; oral administration of vardenafil)
1 | about 10.4 mg | 8.8 | 91 | 88 | CCCc1nc(C)c2c(=O)[nH]c(-c3cc(S(=O)(=O)N4CCN(CC)CC4)ccc3OCC)nn12 [vardenafil hydrochloride trihydrate] |  | 
2 |  |  |  |  | CCCc1nc(C)c2c(=O)[nH]c(-c3cc(S(=O)(=O)N4CCN(CC)CC4)ccc3OCC)nn12 [vardenafil] | about 14% | about 1 hour
